# Measurements: patent US11970458B1, “4,5-bis(4-bromophenyl)-1-hexyl-2-(4-nitrophenyl)-1H-imidazole as an antimicrobial compound” (KING FAISAL UNIVERSITY, priority 2023, dated 2024)
# Legend:
# Candida albicans = experiment: antimicrobial screening by agar dilution; assay type: cell-based; conditions: after 10, 20, 40 and 60 minutes at all dilutions 1:100, 1:200, 1:400, 1:800
# Description: (§1) The antimicrobial properties of the 4,5-bis(4-bromophenyl)-1-hexyl-2-(4-nitrophenyl)-1H-imidazole was studied by the method of agar dilution. Test solutions of each compound was prepared in concentration of 1% using dimethylformamide as a solvent then they were diluted in physiological solution to obtain the final experimental dilutions 1:100, 1:200, 1:400, 1:800. The effect of these substances were compared with furacillin in a controlled study. The testing microbes used were gram positive bacteria Staphylococcus aureus, gram negative bacteria Pseudomonas aeruginosa and Escherichia coli and Candida albicans fungi were taken. The experiments used for this survey were meat-pentonlu agar (EPA) for cultivation of bacteria and Saburo environment for fungi. Each experiment used 1 ml of test solution on each plate 500 min. Add 2 drops of emulsified with microbes feel. All experimental samples were taken from the agar after 10, 20, 40, 60 minutes in the environment on the basis of Patrk planted. Bacteria were cultivated at a temperature of 37° C. for 1 day and the mushroom was kept in a thermostat for […] at a temperature of 28° C. Then results were checked.
# Pseudomonas aeruginosa = experiment: antimicrobial screening by agar dilution; assay type: cell-based; conditions: after 10, 20, 40 and 60 minutes at all dilutions 1:100, 1:200, 1:400, 1:800
# Description: as §1
# Staphylococcus aureus = experiment: antimicrobial screening by agar dilution; assay type: cell-based; conditions: after 10, 20, 40 and 60 minutes at all dilutions 1:100, 1:200, 1:400, 1:800
# Description: as §1
# Escherichia coli = experiment: antimicrobial screening by agar dilution; assay type: cell-based; conditions: after 10, 20, 40 and 60 minutes at all dilutions 1:100, 1:200, 1:400, 1:800
# Description: as §1
structure (smiles),measurement,setting,value
"CCCCCCn1c(-c2ccc([N+](=O)[O-])cc2)nc(-c2ccc(Br)cc2)c1-c1ccc(Br)cc1 [4,5-bis(4-bromophenyl)-1-hexyl-2-(4-nitrophenyl)-1H-imidazole]",inhibition activity,Candida albicans,highest inhibition activity
same,inhibition activity,Pseudomonas aeruginosa,highest inhibition activity
same,inhibition activity,Staphylococcus aureus,highest inhibition activity
same,inhibition activity,Escherichia coli,highest inhibition activity
same,melting point,,160 to 161 °C
